Test results as given in patent publication US11970497B2, “Tricyclic AKR1C3 dependent KARS inhibitors” (Novartis AG, priority 2019, dated 2024).

Experiments:
[1] = test system: Hara (NRF2 pathway wild type cell line with low AKR1C3 expression); assay: In vitro cell proliferation assay (CellTiter-Glo), Hara; format: cell-based; settings: 72 h; Hara cells, 3 days, CellTiter-Glo, top concentration 10 μM; read-out: HARA Qualified absolute AC50
Excerpt: (§1) Cellular Proliferation Assay to Assess Compounds Activity in H460 (NRF2 Pathway Mutant Cell Line with High AKR1C3 Expression) and Hara (NRF2 Pathway Wild Type Cell Line with Low AKR1C3 Expression).
(§2) The cell lines A549 and H460 are NRF2 pathway mutant and specifically contain genetic alterations in KEAP1 (A549: G333C, H460: D236H) (Singh A. et al., 2006 PLoS Medicine 3(10) e420). In these cell lines the NRF2 pathway is constitutively active and these cells express high levels of NRF2 protein and NRF2 pathway target gene AKR1C3. […] They have low AKR1C3 expression.
(§3) In Vitro Cell Proliferation Assay
(§4) Day 1, for H460 800 cells/well or 40 μL of 2×10^4 cells/mL and for Hara 2000 cells/well or 40 μL of 5×10^4 cells/mL medium (RPMI-1640 supplemented with 10% fetal bovine serum and 1% penicillin/streptomycin) were seeded into 384-well tissue culture plates. Day 2, compounds were serially diluted 1:5 to generate 8 point dose response curves and added to cells for a final top concentration of 10 μM. DMSO (1%) control and MG132 (30 μM) controls are added in columns 23 and 24 respectively on each plate for positive and negative control. After incubation for 3 days at 37° C./5% CO2, 30 μl of CellTiter-Glo reagent (Promega) was added and the plates were incubated for 10 min on plate shaker. The amount of luminescence was determined using a Perkin Elmer Envision plate reader. CellTiter-Glo luminescence values of cells treated with DMSO and MG132 controls were used to normalize the data and calculate percentage activity and AC50s of compounds using the Helios Software suite.

[2] = test system: H460 (NRF2 pathway mutant cell line with high AKR1C3 expression); assay: In vitro cell proliferation assay (CellTiter-Glo), H460; format: cell-based; settings: Homo sapiens, NCI-H460, 72 h; H460 cells, 3 days, CellTiter-Glo, top concentration 10 μM; read-out: H460 Qualified absolute AC50
Excerpt: as §1, §2, §3, §4

SMILES | AC50 [1] | AC50 [2]
Cc1cc(CNC(=O)N2CCC3(CC2)CC(=O)c2cc(F)ccc2N3)ccc1N [Example 119, N-(4-amino-3-methylbenzyl)-6′-fluoro-4′-oxo-3′,4′-dihydro-1′H-spiro[piperidine-4,2′-quinoline]-1-carboxamide] | > 10 µM | 1020 nM
COc1cc(F)ccc1CNC(=O)N1CCC2(CC1)CC(O)c1cc(F)ccc1N2 (racemic) [Example 168, 6′-fluoro-N-(4-fluoro-2-methoxybenzyl)-4′-hydroxy-3′,4′-dihydro-1′H-spiro[piperidine-4,2′-quinoline]-1-carboxamide] | 0.049 µM | 41 nM
NC(=O)Cc1cc(CNC(=O)N2CCC3(CC2)CC(=O)c2cc(F)ccc2N3)ccc1F [Example 103, N-(3-(2-amino-2-oxoethyl)-4-fluorobenzyl)-6′-fluoro-4′-oxo-3′,4′-dihydro-1′Hspiro[piperidine-4,2′-quinoline]-1-carboxamide] | > 10 µM | 558 nM
Cc1occc1CNC(=O)N1CCC2(CC1)CC(=O)c1cc(F)cc(F)c1N2 [Example 10, 6′,8′-difluoro-N-((2-methylfuran-3-yl)methyl)-4′-oxo-3′,4′-dihydro-1′H-spiro[piperidine-4,2′-quinoline]-1-carboxamide] | 5.41 µM | 21 nM
NC(=O)c1cc(CNC(=O)N2CCC3(CC2)CC(=O)c2cc(F)ccc2N3)ccc1F [Example 24, N-(3-carbamoyl-4-fluorobenzyl)-6′-fluoro-4′-oxo-3′,4′-dihydro-1′H-spiro[piperidine-4,2′-quinoline]-1-carboxamide] | 5.94 µM | 46 nM
CCNc1cc(F)ccc1CNC(=O)N1CCC2(CC1)CC(=O)c1cc(F)ccc1N2C [Example 52, N-(2-(ethylamino)-4-fluorobenzyl)-6′-fluoro-1′-methyl-4′-oxo-3′,4′-dihydro-1′H-spiro[piperidine-4,2′-quinoline]-1-carboxamide] | > 10 µM | 139 nM
O=C1CC2(CCN(C(=O)NCc3ccc(F)nc3)CC2)Nc2c(F)cc(F)cc21 [Example 125, 6′,8′-difluoro-N-((6-fluoropyridin-3-yl)methyl)-4′-oxo-3′,4′-dihydro-1′H-spiro[piperidine-4,2′-quinoline]-1-carboxamide] | > 10 µM | 1170 nM
Nc1ccc(CNC(=O)N2CCC3(CC2)CC(=O)c2cc(F)ccc2N3)cc1C(F)(F)F [Example 112, N-(4-amino-3-(trifluoromethyl)benzyl)-6′-fluoro-4′-oxo-3′,4′-dihydro-1′H-spiro[piperidine-4,2′-quinoline]-1-carboxamide] | > 10 µM | 783 nM
O=C1CC2(CCN(C(=O)NCc3cccc(-c4cnco4)c3)CC2)Nc2c(F)cc(F)cc21 [Example 35, 6′,8′-difluoro-N-(3-(oxazol-5-yl)benzyl)-4′-oxo-3′,4′-dihydro-1′H-spiro[piperidine-4,2′-quinoline]-1-carboxamide] | 2.72 µM | 77 nM
O=C1CC2(CCN(C(=O)NCc3ccc(F)c(NS(=O)(=O)C4CC4)c3)CC2)Nc2ccc(F)cc21 [Example 133, N-(3-(cyclopropanesulfonamido)-4-fluorobenzyl)-6′-fluoro-4′-oxo-3′,4′-dihydro-1′H-spiro[piperidine-4,2′-quinoline]-1-carboxamide] | > 10 µM | 1770 nM
Cc1cc(N)ccc1CNC(=O)N1CCC2(CC1)CC(=O)c1cc(F)ccc1N2 [Example 116, N-(4-amino-2-methylbenzyl)-6′-fluoro-4′-oxo-3′,4′-dihydro-1′H-spiro[piperidine-4,2′-quinoline]-1-carboxamide] | > 10 µM | 935 nM
O=C1CC2(CCN(C(=O)NCc3ccc(OC(F)F)c(F)c3)CC2)Nc2c(F)cc(F)cc21 [Example 108, N-(4-(difluoromethoxy)-3-fluorobenzyl)-6′,8′-difluoro-4′-oxo-3′,4′-dihydro-1′H-spiro[piperidine-4,2′-quinoline]-1-carboxamide] | 3.18 µM | 646 nM
O=C1CC2(CCN(C(=O)NCc3ccc(F)cc3C(F)(F)F)CC2)Nc2ccc(F)cc21 [Example 67, 6′-fluoro-N-(4-fluoro-2-(trifluoromethyl)benzyl)-4′-oxo-3′,4′-dihydro-1′H-spiro[piperidine-4,2′-quinoline]-1-carboxamide] | 2.3 µM | 225 nM
O=C1CC2(CCN(C(=O)NCc3ccoc3)CC2)Nc2c(F)cc(F)cc21 [Example 46, 6′,8′-difluoro-N-(furan-3-ylmethyl)-4′-oxo-3′,4′-dihydro-1′H-spiro[piperidine-4,2′-quinoline]-1-carboxamide] | 2.94 µM | 105 nM
[2H]C([2H])(NC(=O)N1CCC2(CC1)CC(=O)c1cc(F)ccc1N2)c1ccc(F)cc1 [Example 12, 6′-fluoro-N-((4-fluorophenyl)methyl-d2)-4′-oxo-3′,4′-dihydro-1′H-spiro[piperidine-4,2′-quinoline]-1-carboxamide] | > 10 µM | 24 nM
CN1c2ccc(F)cc2C(=O)CC12CCN(C(=O)NCc1ccc(F)c(NCCO)c1F)CC2 [Example 91, N-(2,4-difluoro-3-((2-hydroxyethyl)amino)benzyl)-6′-fluoro-1′-methyl-4′-oxo-3′,4′-dihydro-1′H-spiro[piperidine-4,2′-quinoline]-1-carboxamide] | > 10 µM | 451 nM
CN1c2ccc(F)cc2C(=O)CC12CCN(C(=O)NCc1ccc(F)c(NC[C@H](O)CO)c1)CC2 [Example 45, (S)—N-(3-((2,3-dihydroxypropyl)amino)-4-fluorobenzyl)-6′-fluoro-1′-methyl-4′-oxo-3′,4′-dihydro-1′H-spiro[piperidine-4,2′-quinoline]-1-carboxamide] | > 10 µM | 100 nM
Nc1ccc(CNC(=O)N2CCC3(CC2)CC(=O)c2cc(F)ccc2N3)c(C(F)(F)F)c1 [Example 104, N-(4-amino-2-(trifluoromethyl)benzyl)-6′-fluoro-4′-oxo-3′,4′-dihydro-1′H-spiro[piperidine-4,2′-quinoline]-1-carboxamide] | > 10 µM | 573 nM
CCN1c2ccc(F)cc2C(=O)CC12CCN(C(=O)NCc1ccc(F)c(NCCO)c1)CC2 [Example 25, 1′-ethyl-6′-fluoro-N-(4-fluoro-3-((2-hydroxyethyl)amino)benzyl)-4′-oxo-3′,4′-dihydro-1′H-spiro[piperidine-4,2′-quinoline]-1-carboxamide] | 1.66 µM | 47 nM
Nc1cc(CNC(=O)N2CCC3(CC2)CC(=O)c2cc(F)ccc2N3)c(F)cc1F [Example 126, N-(5-amino-2,4-difluorobenzyl)-6′-fluoro-4′-oxo-3′,4′-dihydro-1′H-spiro[piperidine-4,2′-quinoline]-1-carboxamide] | > 10 µM | 1290 nM
CCN1c2ccc(F)cc2C(=O)CC12CCN(C(=O)NCc1ccc(F)c(N)c1F)CC2 [Example 26, N-(3-amino-2,4-difluorobenzyl)-1′-ethyl-6′-fluoro-4′-oxo-3′,4′-dihydro-1′H-spiro[piperidine-4,2′-quinoline]-1-carboxamide] | > 10 µM | 47 nM
O=C1CC2(CCN(C(=O)NCc3ccc(F)cc3F)CC2)Nc2ccc(F)cc21 [Example 16, N-(2,4-difluorobenzyl)-6′-fluoro-4′-oxo-3′,4′-dihydro-1′H-spiro[piperidine-4,2′-quinoline]-1-carboxamide] | > 10 µM | 29 nM
CN(C)c1cccc(CNC(=O)N2CCC3(CC2)CC(=O)c2cc(F)cc(F)c2N3)n1 [Example 66, N-((6-(dimethylamino)pyridin-2-yl)methyl)-6′,8′-difluoro-4′-oxo-3′,4′-dihydro-1′H-spiro[piperidine-4,2′-quinoline]-1-carboxamide] | > 10 µM | 223 nM
CN1c2ccc(F)cc2C(=O)CC12CCN(C(=O)NCc1ccc(F)c(NCCOP(=O)(O)O)c1)CC2 [Example 28] | > 10 µM | 52 nM
CC(C)S(=O)(=O)Nc1cc(CNC(=O)N2CCC3(CC2)CC(=O)c2cc(F)ccc2N3)ccc1F [Example 23, 6′-fluoro-N-(4-fluoro-3-((1-methylethyl)sulfonamido)benzyl)-4′-oxo-3′,4′-dihydro-1′H-spiro[piperidine-4,2′-quinoline]-1-carboxamide] | > 10 µM | 6900 nM
CN1c2ccc(F)cc2C(=O)CC12CCN(C(=O)NCc1ccc(F)cc1NCCO)CC2 [Example 86, 6′-fluoro-N-(4-fluoro-2-((2-hydroxyethyl)amino)benzyl)-1′-methyl-4′-oxo-3′,4′-dihydro-1′H-spiro[piperidine-4,2′-quinoline]-1-carboxamide] | > 10 µM | 379 nM
